Assay results as given in publication PMC8003343 (Pharmaceuticals, 2021).
Blank lines part the entries; values can stand above or below the molecule they belong to.

Legend:
[1] = In vitro intrinsic clearance in dog liver microsomes (DLM); type: in vitro ADME, beagle dogs
Method: (§1) Liver microsomes from Sprague Dawley rats (RLM), CD-1 mice (MLM), beagle dogs (DLM), Göttinger mini pigs (MPLM), rhesus monkeys (RMLM), and humans (HLM, specified total P450 content: 0.286 nmol/mg protein) were obtained from Thermo Fisher Scientific/Life Technologies (Darmstadt, Germany). Optimization of incubation conditions (microsomal protein concentration, substrate solvent, incubation buffer) has been carried out in a previous study. For assessment of intrinsic clearance (CLint), substrate (8 µM CBX, MCBX or CPFPX, stock solutions in DMSO) and microsomes (0.4 mg/mL RLM, MLM, DLM and MPLM, 2.0 mg/mL HLM and 0.04 mg/mL RMLM) were preincubated for 5 min at 37 °C in HEPES buffer (100 mM, pH 7.4) containing MgCl2 (3.3 mM). Enzymatic reactions were initiated by addition of preheated NADPH (1.3 mM) and were allowed to proceed for 30 min. Aliquots (100 µL) were sampled from the incubation mixture (500 µL total volume) at 0 and 30 min. An equal volume of a mixture of MeOH/MeCN (50:50, v/v, cooled to −20 °C) was added to terminate the reaction. After subsequent homogenization on a vortex mixer (1 min, 21 °C) and centrifugation (10 min, 20,000× g rcf, 21 °C), the supernatants (50 µL aliquots) were analyzed via HPLC-UV/VIS (Knauer smartline system equipped with a Rheodyne type 7125 sample injector and a 500 µL sample loop). Chromatographic conditions were as follows. Column: 4.6 mm × 250 mm Kromasil 100-5-C18 (AkzoNobel, Bohus, Sweden); eluent composition: MeCN/H2O/AcOH 48:52:0.2 (v/v/v); flow rate: 1 mL/min; detection wavelength: 275 nm. Microsomal assays were performed in quadruplicate.
(§2) Elimination rate constants (k) of CBX, MCBX, and CPFPX were derived via linear regression analysis of semi-logarithmic peak area vs. time plots.
(§3) In vitro half-life (t1/2) was calculated as:(1) t1/2=ln2/k
(§4) In vitro intrinsic clearance was calculated as follows:(2) Clint=ln2/t1/2[…] where c is the microsomal protein concentration. Since the main focus of the study was to compare CLint between species, but not between compounds, no correction for the microsomal unbound fraction was applied.

[2] = Metabolite profiles in liver microsomes from various species (HPLC-UV/LCMS); type: in vitro ADME, human, rat, mouse, dog, mini pig, rhesus monkey; conditions: for number of metabolites produced by microsomal metabolism: in the microsomes of the test species; for species whose metabolite profile is most similar to the human metabolite profile: liver microsomes; for Species (liver microsomes in which the peak was found): h human, r rat, m mouse, d dog, mp mini pig, rh rhesus, brackets indicate minor peaks, 275 nm
Method: Microsomal assays aimed at metabolite profiling were conducted according to the protocol described in Section 4.3.1, but with 10 µL substrate (CBX, MCBX, CPFPX) in a total incubation volume of 1 mL. In Table 6, microsomal protein concentrations and incubation times used in the individual assays are listed. Blank samples containing all matrix components but no substrate were included. Incubations were terminated by adding two volumens of a mixture of MeOH/MeCN (50:50, v/v, cooled to −20 °C). Samples were then vortexed (1 min, 21 °C), centrifuged (10 min, 20,000× g rcf, 21 °C), and evaporated to dryness using a centrifugal vacuum concentrator (Concentrator 5301, Eppendorf, Wesseling-Berzdorf, Germany) set to a temperature of 45 °C. Dried samples were reconstituted with 160 µL HPLC eluent (MeCN/H2O/AcOH 35:65:0.1 (v/v/v)) and centrifuged (3 min, 20,000× g rcf, 21 °C). Aliquots of the clear supernatant (25 µL) were subsequently injected into the HPLC system. Chromatographic parameters were the same as described in Section 4.3.1, except for the addition of a 3 mm NH2 guard column (OPTI-GUARD, Optimize Technologies Inc., Oregon City, OR, USA). For LCMS analyses, the UV-detector outlet was coupled to a mass spectrometer (MSQ PlusTM, Thermo Electron Corporation, San Jose, CA, USA) via an electrospray interface. LCMS parameters were as follows. Nebulizer M gas pressure: 6 bar; desolvation temperature: 500 °C; positive ion mode (ESI+); sprayer voltage: 3000 V; cone voltages: 50 V (unfragmented spectra) or 185 V (fragmented spectra), m/z range 1–800; scan time: 1 s. Mass spectra were analyzed using Xcalibur software (version 3.0).

[3] = In vitro intrinsic clearance in human liver microsomes (HLM); type: in vitro ADME
Method: as §1, §2, §3, §4

[4] = In vitro intrinsic clearance in rat liver microsomes (RLM); type: in vitro ADME, Sprague Dawley rats; conditions: microsomes from rat, mouse, mini pig, and rhesus
Method: as §1, §2, §3, §4

[5] = Enone metabolite formation in human liver microsomes; type: in vitro ADME; conditions: 6 at 4 µM, 1.0 mg/mL HLM, 150 min
Method: (§5) In preliminary experiments, the potential enone precursors 5–8 (8 µM) were incubated with either RLM (0.4 mg/mL) or HLM (0.8 mg/mL) for up to 4 h according to the protocol given in Section 4.3.1. Multiple samples were taken during incubation and analyzed with regard to the presence of the enone metabolite 4 in the incubation mixture.
(§6) The time course of the formation of 4 from precursor 6 was monitored by incubation of 6 (4 µM) with either 1.0 mg/mL HLM for 150 min or 0.4 mg/mL RLM for 100 min according to the procedures described in Section 4.3.1. but with a prolonged centrifugation cycle (15 min) for protein precipitation. Chromatographic separation was performed on a Kromasil C18 column (see Section 4.3.1) equipped with a 3 mm NH2 guard column (OPTI-GUARD, Optimize Technologies Inc., Oregon City, OR, USA) using an eluent composed of MeCN/H2O/AcOH 45:55:0.1 (v/v/v). All other chromatographic parameters resembled those given above. Incubations were conducted in triplicate.

[6] = Enone metabolite formation in rat liver microsomes; type: in vitro ADME; conditions: 6 at 4 µM, 0.4 mg/mL RLM, 100 min
Method: as §5, §6

[7] = parameters: method as in PMID 1441590; conditions: human microsomes from a single donor; cited from earlier work
[8] = In vitro intrinsic clearance in rhesus monkey liver microsomes (RMLM); type: in vitro ADME, rhesus monkeys; conditions: rhesus vs human liver microsomes; highest ratio among the three compounds
Method: as §1, with “Aliquots (100 µL) were sampled from the incubation mixture (500 µL total volume) at 0 and 30 min. An equal volume of a mixture of MeOH/MeCN (50:50, v/v, cooled to −20 °C) was added to terminate the reaction.” left out, “Chromatographic conditions were as follows. Column: 4.6 mm × 250 mm Kromasil 100-5-C18 (AkzoNobel, Bohus, Sweden); eluent composition: MeCN/H2O/AcOH 48:52:0.2 (v/v/v); flow rate: 1 mL/min; detection wavelength: 275 nm. Microsomal assays were performed in quadruplicate.” left out
as §3
In vitro intrinsic clearance was calculated as follows:(2) Clint=ln2/t1/2×c where c is the microsomal protein concentration. […]

[9] = from [18F]CPFPX; cited from earlier work
[10] = from [18F]CPFPX; cited from earlier work; remark: listed apart in the source
[11] = rats and mice after [18F]CPFPX injection; cited from earlier work
[12] = radiometabolite of [18F]CPFPX; cited from earlier work

Structure (SMILES): CCCn1c(=O)c2[nH]c(C3=CC(O)CC3)nc2n(CCCF)c1=O (centres unmarked) [compound 9, 3-(3-fluoropropyl)-8-(3-hydroxycyclopent-1-en-1-yl)-1-propylxanthine]
metabolic fate (time course) in human liver microsomes [5]: further metabolized to 4
metabolic fate (time course) in rat liver microsomes [6]: remained constant

Structure (SMILES): Cn1c(=O)c2c(ncn2C)n(C)c1=O [caffeine]
rate of metabolism in hepatic microsomes, species comparison [7]: considerably higher in hepatic microsomes from humans than in those from rats or monkeys

Structure (SMILES): CCCn1c(=O)c2[nH]c(C3=CC(=O)CC3)nc2n(CCCF)c1=O [compound 4, 3-(3-Fluoropropyl)-8-(3-oxocyclopent-1-en-1-yl)-1-propylxanthine]
formation of the enone radiometabolite in microsomes from rats and mice [9]: almost no significant amounts could be detected
formation of the enone radiometabolite in human microsomes [10]: extensive formation
species microsomes generating the enone metabolite from CPFPX ([2]; substrate CPFPX): exclusively in human and dog microsomes
Species (liver microsomes in which the peak was found) ([2]; substrate CPFPX): h, d
formation of the enone metabolite in vivo (plasma) [11]: generated in vivo
blood–brain barrier penetration [12]: does not penetrate the blood–brain barrier
excretion from the body [12]: slow excretion from the body

Continued, in another order:

rank order of CLint [1]: CPFPX > MCBX ≈ CBX
number of metabolites produced by microsomal metabolism [2]: up to 10 metabolites
species whose metabolite profile is most similar to the human metabolite profile [2]: Rodent
Species (liver microsomes in which the peak was found) ([2]; substrate MCBX): h, r, m, d, mp, rh
rank order of CLint [3]: CBX > CPFPX > MCBX
rank order of CLint [4]: CPFPX > MCBX > CBX
Structure (SMILES): CCCn1c(=O)c2[nH]c(C3(C)CCC3)nc2n(CCCF)c1=O [MCBX, 3-(3-Fluoropropyl)-8-(1-methylcyclobutyl)-1-propylxanthine]

rank order of CLint [1]: CPFPX > MCBX ≈ CBX
number of metabolites produced by microsomal metabolism [2]: up to 12 metabolites
Species (liver microsomes in which the peak was found) ([2]; substrate CPFPX): h, r, m, d, mp, rh
rank order of CLint [3]: CBX > CPFPX > MCBX
CLint in rhesus microsomes relative to human microsomes (fold higher) [8]: 134 fold
rank order of CLint [4]: CPFPX > MCBX > CBX
Structure (SMILES): CCCn1c(=O)c2nc(C3CCCC3)[nH]c2n(CCCF)c1=O [CPFPX, 8-Cyclopentyl-3-(3-fluoropropyl)-1-propylxanthine]

rank order of CLint [1]: CPFPX > MCBX ≈ CBX
species whose metabolite profile is most similar to the human metabolite profile [2]: rhesus monkey and mini pig
Species (liver microsomes in which the peak was found) ([2]; substrate CBX): (h), r, m, d, (mp), rh
rank order of CLint [3]: CBX > CPFPX > MCBX
rank order of CLint [4]: CPFPX > MCBX > CBX
Structure (SMILES): CCCn1c(=O)c2[nH]c(C3CCC3)nc2n(CCCF)c1=O [CBX, 8-Cyclobutyl-3-(3-fluoropropyl)-1-propylxanthine]

metabolic fate (time course) in rat liver microsomes [6]: oxidized to produce 9
Structure (SMILES): CCCn1c(=O)c2[nH]c(C3=CCCC3)nc2n(CCCF)c1=O [compound 6, 8-(Cyclopent-1-en-1-yl)-3-(3-fluoropropyl)-1-propylxanthine]
metabolic fate (time course) in human liver microsomes [5]: biotransformation proceeds from 6 via 9 to 4
